Each structure is given as a SMILES string.

Holding throughout (type): cell-based, human
One assay concerns major spliceosome. Description: Luciferase major intron splicing reporter assay. The settings on record: LNCaP and C4-2 cells, long term ADT/ARSi. On the procedure: (§1) CMV-luc2CP/ARE (major intron splicing reporter), CMV-luc2CP (empty vector backbone control) and luc1CFH4 (minor splicing intron reporter) were a kind gift from Dr. Gideon Dreyfuss (University of Pennsylvania). DNA was amplified via chemical transformation of One Shot Mach1 T1 Phage-Resistant Chemically Competent E. coli cells (Invitrogen, C862003) and Sanger sequenced.
(§2) To determine the minor/major intron splicing rate cells were seeded in white 96 well plate (Huberlab, 7.655 098) (8000/well) and treated according to assay conditions. 24 hours prior analysis cells of each condition were co-transfected with each reporter plasmid and the empty vector backbone plasmid. In short 1.5 ul of P3000 reagent plus 0.5 ug of DNA and 1.5 ul Lipofectamine P300 were each diluted in 25 ul Opti-MEMH medium. Both mixes were pooled and incubated for 20 minutes before the solution was added to the cells. Luciferase expression was measured with the Dual-Glo® Luciferase Assay System (Promega, E2940): media was removed, 100 ul of PLB were added and cells were frozen for two hours at −20 C. After a one hour shaking step 100 ul of LAR substrate was added and Firefly luciferase expression was measured with a Tecan Infinite M200PRO reader. Values were calculated as x-fold of CMV-luc2CP expression and subsequently as the x-fold of the respective reference control.
In general terms: In a reporter assay the amount or activity of a reporter protein is the signal.

The subject of assay [1] is C4-2 cells and enzalutamide-resistant LNCaP (L-rENZ) cells. Description: Growth curves with siRNA +/- enzalutamide. Conditions: CRPC C4-2 and L-rENZ cells; compared with EZH2 plus enzalutamide. On the procedure:
For growth experiments cells were treated with siRNA and two hours later with 20 uM enzalutamide. Enzalutamide was refreshed 3 days later.
Cells were seeded in a 6 well (400 000) and treated according to assay conditions over night. Cells were then seeded in Poly-L-Lysine coated 96-well plates (8000 cells/well, n=3 per condition) and WCM154 cells were seeded in a collagen-coated 96-well plates (5000 cells/well, n=3 per condition). Remaining cells were used for U6atac KD control via qRT-PCR. Cell viability was determined after 24, 48, 72, and 96 h with a Tecan Infinite M200PRO reader using the CellTiter-Glo® Luminescent Cell Viability Assay according to manufacturer's directions (Promega, G9243). Viability values were calculated as x-fold of cells transfected with siRNA for 0 h. Cell confluence (n=4 per condition) was determined using the Incucyte S3 instrument and the IncuCyte S3 2018B software (Essen Bioscience, Germany). Values were calculated as x-fold of timepoint 0 and then as fold-change in confluency as compared to siScrambled treated controls.

In another assay the test system is minor spliceosome (MiS). The assay can be described thus: Luciferase minor intron splicing reporter assay. On the procedure:
as §1
as §2, with “24” for “To determine the minor/major intron splicing rate cells were seeded in white 96 well plate (Huberlab, 7.655 098) (8000/well) and treated according to assay conditions. 24”

As to `CNC(=O)c1ccc(N2C(=S)N(c3ccc(C#N)c(C(F)(F)F)c3)C(=O)C2(C)C)cc1F` [enzalutamide], the “major splicing (luc-reporter)” value in the assay with major spliceosome is recorded as “only limited effects”. Moreover, in assay [1], the “cell growth / proliferation” value was “increased CRPC growth in resistant cells”. Further, in the assay with minor spliceosome (MiS) (LNCaP and C4-2 cells, long term ADT/ARSi), the “MiS activity (minor splicing luc-reporter)” value is reported as “significant increase in MiS activity”.
`C[C@]12CCC(=O)C[C@@H]1CC[C@@H]1[C@@H]2CC[C@]2(C)[C@@H](O)CC[C@@H]12` [dihydrotestosterone]: the “MiS activity (luciferase reporter)” value with minor spliceosome (MiS) is listed as “rescued MiS activity to levels observed in L-AR alone”.
In the case of `COc1ccc(C[C@H]2NC[C@H](O)[C@H]2OC(C)=O)cc1` [anisomycin], the “effect on minor intron splicing (luc-splicing reporter)” value in the assay with minor spliceosome (MiS) (LNCaP, C4-2, H660 cells and MSK8, MSK10, MSK16, PM154, PM1262 organoids, p38MAPK activation) is “only observed in PCa-NE cells and organoids (H660, PM154 and MSK10)”.

The record behind these values is patent publication US20240325429A1, “MINOR SPLICEOSOME TARGETING COMPOSITIONS AND THEIR USE IN CANCER TREATMENT” (UNIVERSITÄT BERN, priority 2021, published 2024).
